Three compounds from ChEMBL document CHEMBL1136020, “Synthesis and biological evaluation of an N10-Psec substituted pyrrolo[2,1-c][1,4]benzodiazepine prodrug” (Bioorg Med Chem Lett, 2002) can be followed below.

One experiment deals with SK-OV-3. Briefly: Tested for the cytotoxicity in SKOV-3 ovarian cell line. Format: functional, cell-based. Conditions: Homo sapiens.
Experiment [1] deals with CH1. Briefly: Tested for the cytotoxicity in CHIcisR ovarian cell line. Format: functional, cell-based. To be noted: Homo sapiens, CH1cisR.
Experiment [2] relates to A2780. Briefly: Tested for the cytotoxicity in A2780cisR ovarian cell line (cisR denotes resistance to cisplatin). To be noted: Homo sapiens. Format: functional, cell-based.
A short description of experiment [3]: Ratio of cytotoxicity of cisR/normal cell line; not active. Format: functional.
In experiment [4] the test system is CH1. The experiment is described as follows: Tested for the cytotoxicity in CHI ovarian cell line. Format: functional, cell-based. To be noted: Homo sapiens.
In experiment [5] the test system is A2780. Briefly: Tested for the cytotoxicity in A2780 ovarian cell line. Format: functional, cell-based. To be noted: Homo sapiens.
In experiment [6] the test system is SK-MEL-5. Briefly: Concentration required to restrict cell growth to 50% on continuous exposure for 48 hr in Melanoma (SK-MEL-5) cell line. Format: functional. To be noted: Homo sapiens, SK-MEL-5, 48 h.
In experiment [7] the test system is SNB-75. The experiment is described as follows: Concentration required to decrease cell population by 50% on continuous exposure for 48 hr in CNS (SNB-75) cell line. Format: functional. To be noted: Homo sapiens, SNB-75, 48 h; read-out: LC50 (the source's name).
For experiment [8], the system named is SK-MEL-5. The experiment is described as follows: Concentration required to decrease cell population by 50% on continuous exposure for 48 hr in Melanoma (SK-MEL-5) cell line. Conditions: Homo sapiens, SK-MEL-5, 48 h; read-out: LC50 (the source's name). Type of experiment: functional.
Experiment [9] deals with MDA-MB-435. Briefly: Concentration required to restrict cell growth to 50% on continuous exposure for 48 hr in Breast (MDA-MB-435) cell line. Format: functional. To be noted: Homo sapiens, MDA-MB-435, 48 h.
The subject of experiment [10] is NCI-H522. Briefly: Concentration required to restrict cell growth to 50% on continuous exposure for 48 hr in Lung ([…]) cell line. Conditions: Homo sapiens, NCI-H522, 48 h. Format: functional.
In experiment [11] the test system is COLO 205. The experiment is described as follows: Concentration required to decrease cell population by 50% on continuous exposure for 48 hr in Colon (COLO 205) cell line C. Type of experiment: functional. Conditions: Homo sapiens, COLO 205, 48 h; read-out: LC50 (the source's name).
For experiment [12], the system named is MDA-MB-435. The experiment is described as follows: Concentration required to decrease cell population by 50% on continuous exposure for 48 hr in Breast (MDA-MB-435) cell line. Format: functional. Conditions: Homo sapiens, MDA-MB-435, 48 h; read-out: LC50 (the source's name).
Experiment [13] is described as follows: Ratio of cytotoxicity of cisR/normal cell line. Format: functional.
Experiment [14] concerns RXF 393. Briefly: Concentration required to restrict cell growth to 50% on continuous exposure for 48 hr in Renal (RXF 393) cell line. To be noted: Homo sapiens, RXF 393, 48 h. Format: functional.
Experiment [15] concerns NCI-H522. The experiment is described as follows: Concentration required to decrease cell population by 50% on continuous exposure for 48 hr in Lung ([…]) cell line. Conditions: Homo sapiens, NCI-H522, 48 h; read-out: LC50 (the source's name). Format: functional.
Experiment [16] has as its system COLO 205. Briefly: Concentration required to restrict cell growth to 50% on continuous exposure for 48 hr in Colon (CoIo 205) cell line. Format: functional. To be noted: Homo sapiens, COLO 205, 48 h.
Experiment [17] relates to SNB-75. Briefly: Concentration required to restrict cell growth to 50% on continuous exposure for 48 hr in CNS (SNB-75) cell line. Format: functional. Conditions: Homo sapiens, SNB-75, 48 h.
Experiment [18] relates to RXF 393. Briefly: Concentration required to decrease cell population by 50% on continuous exposure for 48 hr in Renal (RXF 393) cell line. Format: functional. To be noted: Homo sapiens, RXF 393, 48 h; read-out: LC50 (the source's name).

Where “and” joins values, the source holds several entries; their conditions need not be identical. Equal entries are not always repeated. Calls of active or inactive are those of the source. The rule behind the calls is not given here.

Regarding `COc1cc2c(cc1OC)N(C(=O)OCCSc1ccccc1)[C@@H](O)[C@@H]1CCCN1C2=O`, the IC50 in the experiment on SK-OV-3, in the experiment on CH1 [1], in the experiment on A2780 [2], with CH1 [4] and in the experiment on A2780 [5] was more than 25000 nM throughout. For the same compound, in experiment [3], the Resistance factor entry is “inactive”.

Regarding `COc1cc2c(cc1OC)N(C(=O)OCCS(=O)(=O)c1ccccc1)[C@@H](O)[C@@H]1CCCN1C2=O`, the GI50 (in general, the concentration giving 50% growth inhibition) with SK-MEL-5 [6] stood at 290 nM; in the experiment on MDA-MB-435 [9] it was 450 nM; in the experiment on NCI-H522 [10], 110 nM; in the experiment on RXF 393 [14] it was 240 nM; in the experiment on COLO 205 [16], 190 nM; with SNB-75 [17], 720 nM. For the same compound, the CC50 in the experiment with SNB-75 [7] came out at 9000 nM; with SK-MEL-5 [8], 6780 nM; in the experiment on COLO 205 [11] it was 710 nM; in the experiment on MDA-MB-435 [12], 4330 nM; in the experiment on NCI-H522 [15], 1380 nM; in the experiment on RXF 393 [18], 2970 nM. Moreover, the IC50 – broadly, the concentration at which inhibition is half-maximal – in the experiment with SK-OV-3 stood at 560 nM; with CH1 [1], 470 nM; in the experiment on A2780 [2] it was 490 nM; with CH1 [4], 400 nM; with A2780 [5], 480 nM. Besides, the Resistance factor in experiment [13] is 1 and 1.2.

For the compound `COc1cc2c(cc1OC)C(=O)N1CCC[C@H]1C=N2`, the half-inhibitory concentration (IC50) turned out to be 1700 nM in the experiment with SK-OV-3; 110 nM with CH1 [1]; 155 nM in the experiment with A2780 [2]; 82 nM in the experiment on CH1 [4]; 64 nM with A2780 [5]. The Resistance factor in experiment [13] is 2.4 and 1.3.
